Laboratory results from US10206394B2, “Herbicidal compounds” (Syngenta Participations AG, priority 2014, dated 2019).
Like-named read-outs stand apart in the source and are kept apart here.

Tests used:
Test in all cases: Glasshouse assay for herbicidal activity (pre- and post-emergence), percentage phytotoxicity
Format in all cases: in vivo
Avena fatua (AVEFA) = conditions: Avena fatua
Method in brief: (§1)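 Sow seed in standard soil in pots; apply test herbicide after 1 day (PRE) or about 12 days (POST). Grow on in the glasshouse, watering twice daily, cool-season species at 20/16 °C and warm-season at 24/18 °C. Score visible damage (0–100%) at 20 or 15 DAA respectively.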

[1] = tested on: Alopecurus myosuroides (ALOMY); conditions: Alopecurus myosuroides
Method in brief: as §1

Lolium perenne (LOLPE) = conditions: Lolium perenne
Method in brief: as §1

[2] = tested on: Echinochloa crus-galli (ECHCG); conditions: Echinochloa crus-galli
Method in brief: as §1

[3] = post-emergence, 360 h, POST-emergence, rate 250 g/ha, visual score 15 DAA (100%=total damage, 0%=no damage), read-out: Post-emergence herbicidal activity (percentage phytotoxicity) AVEFA POST
[4] = pre-emergence, 480 h, PRE-emergence, rate 250 g/ha, visual score 20 DAA (100%=total damage, 0%=no damage), read-out: Pre-emergence herbicidal activity (percentage phytotoxicity) AVEFA PRE
[5] = post-emergence, 360 h, POST-emergence, rate 250 g/ha, visual score 15 DAA (100%=total damage, 0%=no damage), read-out: Post-emergence herbicidal activity (percentage phytotoxicity) ALOMY POST
[6] = pre-emergence, 480 h, PRE-emergence, rate 250 g/ha, visual score 20 DAA (100%=total damage, 0%=no damage), read-out: Pre-emergence herbicidal activity (percentage phytotoxicity) ALOMY PRE
[7] = post-emergence, 360 h, POST-emergence, rate 250 g/ha, visual score 15 DAA (100%=total damage, 0%=no damage), read-out: Post-emergence herbicidal activity (percentage phytotoxicity) LOLPE POST
[8] = pre-emergence, 480 h, PRE-emergence, rate 250 g/ha, visual score 20 DAA (100%=total damage, 0%=no damage), read-out: Pre-emergence herbicidal activity (percentage phytotoxicity) LOLPE PRE
[9] = post-emergence, 360 h, POST-emergence, rate 250 g/ha, visual score 15 DAA (100%=total damage, 0%=no damage), read-out: Post-emergence herbicidal activity (percentage phytotoxicity) ECHCG POST
[10] = pre-emergence, 480 h, PRE-emergence, rate 250 g/ha, visual score 20 DAA (100%=total damage, 0%=no damage), read-out: Pre-emergence herbicidal activity (percentage phytotoxicity) ECHCG PRE
[11] = post-emergence, 360 h, 250 g/ha, post-emergence, 15 DAA, visual assessment (100%=total damage, 0%=no damage), read-out: Post-emergence herbicidal activity (percentage phytotoxicity) AVEFA POST
[12] = pre-emergence, 480 h, 250 g/ha, pre-emergence, 20 DAA, visual assessment (100%=total damage, 0%=no damage), read-out: Pre-emergence herbicidal activity (percentage phytotoxicity) AVEFA PRE
[13] = post-emergence, 360 h, 250 g/ha, post-emergence, 15 DAA, visual assessment (100%=total damage, 0%=no damage), read-out: Post-emergence herbicidal activity (percentage phytotoxicity) ALOMY POST
[14] = pre-emergence, 480 h, 250 g/ha, pre-emergence, 20 DAA, visual assessment (100%=total damage, 0%=no damage), read-out: Pre-emergence herbicidal activity (percentage phytotoxicity) ALOMY PRE
[15] = post-emergence, 360 h, 250 g/ha, post-emergence, 15 DAA, visual assessment (100%=total damage, 0%=no damage), read-out: Post-emergence herbicidal activity (percentage phytotoxicity) LOLPE POST
[16] = pre-emergence, 480 h, 250 g/ha, pre-emergence, 20 DAA, visual assessment (100%=total damage, 0%=no damage), read-out: Pre-emergence herbicidal activity (percentage phytotoxicity) LOLPE PRE
[17] = post-emergence, 360 h, 250 g/ha, post-emergence, 15 DAA, visual assessment (100%=total damage, 0%=no damage), read-out: Post-emergence herbicidal activity (percentage phytotoxicity) ECHCG POST
[18] = pre-emergence, 480 h, 250 g/ha, pre-emergence, 20 DAA, visual assessment (100%=total damage, 0%=no damage), read-out: Pre-emergence herbicidal activity (percentage phytotoxicity) ECHCG PRE

SMILES | pest or weed control at 250 g/ha (Avena fatua (AVEFA); [3]) [%] | pest or weed control at 250 g/ha (Avena fatua (AVEFA); [4]) [%] | pest or weed control at 250 g/ha [1, 5] [%] | pest or weed control at 250 g/ha [1, 6] [%] | pest or weed control at 250 g/ha (Lolium perenne (LOLPE); [7]) [%] | pest or weed control at 250 g/ha (Lolium perenne (LOLPE); [8]) [%] | pest or weed control at 250 g/ha [2, 9] [%] | pest or weed control at 250 g/ha [2, 10] [%] | pest or weed control at 250 g/ha (Avena fatua (AVEFA); [11]) [%] | pest or weed control at 250 g/ha (Avena fatua (AVEFA); [12]) [%] | pest or weed control at 250 g/ha [1, 13] [%] | pest or weed control at 250 g/ha [1, 14] [%] | pest or weed control at 250 g/ha (Lolium perenne (LOLPE); [15]) [%] | pest or weed control at 250 g/ha (Lolium perenne (LOLPE); [16]) [%] | pest or weed control at 250 g/ha [2, 17] [%] | pest or weed control at 250 g/ha [2, 18] [%] | also measured
CCN(C)C(=O)CC1CC(=O)C(c2c(C)cc(-c3ccc(F)cn3)cc2C)C1=O (stereo not shown) [Compound B392] |  |  |  |  |  |  |  |  |  |  |  |  |  |  |  |  | pest or weed control at 250 g/ha (Avena fatua (AVEFA); post-emergence, 360 h, Rate 250 g/ha, post-emergence, visual assessment 15 DAA, 100%=total damage, 0%=no damage, read-out: Post-emergence herbicidal activity (percentage phytotoxicity) AVEFA POST): 100%; pest or weed control at 250 g/ha (Avena fatua (AVEFA); pre-emergence, 480 h, Rate 250 g/ha, pre-emergence, visual assessment 20 DAA, 100%=total damage, 0%=no damage, read-out: Pre-emergence herbicidal activity (percentage phytotoxicity) AVEFA PRE): 100%; pest or weed control at 250 g/ha ([1]; post-emergence, 360 h, Rate 250 g/ha, post-emergence, visual assessment 15 DAA, 100%=total damage, 0%=no damage, read-out: Post-emergence herbicidal activity (percentage phytotoxicity) ALOMY POST): 90%; pest or weed control at 250 g/ha ([1]; pre-emergence, 480 h, Rate 250 g/ha, pre-emergence, visual assessment 20 DAA, 100%=total damage, 0%=no damage, read-out: Pre-emergence herbicidal activity (percentage phytotoxicity) ALOMY PRE): 100%; pest or weed control at 250 g/ha (Lolium perenne (LOLPE); post-emergence, 360 h, Rate 250 g/ha, post-emergence, visual assessment 15 DAA, 100%=total damage, 0%=no damage, read-out: Post-emergence herbicidal activity (percentage phytotoxicity) LOLPE POST): 90%; pest or weed control at 250 g/ha (Lolium perenne (LOLPE); pre-emergence, 480 h, Rate 250 g/ha, pre-emergence, visual assessment 20 DAA, 100%=total damage, 0%=no damage, read-out: Pre-emergence herbicidal activity (percentage phytotoxicity) LOLPE PRE): 100%; pest or weed control at 250 g/ha ([2]; post-emergence, 360 h, Rate 250 g/ha, post-emergence, visual assessment 15 DAA, 100%=total damage, 0%=no damage, read-out: Post-emergence herbicidal activity (percentage phytotoxicity) ECHCG POST): 100%; pest or weed control at 250 g/ha ([2]; pre-emergence, 480 h, Rate 250 g/ha, pre-emergence, visual assessment 20 DAA, 100%=total damage, 0%=no damage, read-out: Pre-emergence herbicidal activity (percentage phytotoxicity) ECHCG PRE): 100%
CCc1cc(C)cc(C)c1C1C(=O)CC(CC(=O)NCc2cccc(F)c2)C1=O (stereo not shown) [Compound B252] | 90 | 70 | 100 | 100 | 100 | 100 | 100 | 100 |  |  |  |  |  |  |  |  | 
COc1cccc(CNC(=O)CC2CC(=O)C(c3c(C)cc(C)cc3C)C2=O)c1 (stereo not shown) [Compound B11] |  |  |  |  |  |  |  |  | 70 | 70 | 70 | 70 | 80 | 90 | 70 | 90 | 
Cc1cc(C)c(C2C(=O)CC(CC(=O)NCc3ccccc3C(F)(F)F)C2=O)c(C)c1 (stereo not shown) [Compound B19] |  |  |  |  |  |  |  |  | 50 | 20 | 50 | 10 | 70 | 80 | 70 | 90 | 
Cc1cc(-c2ncc(F)cc2C#N)cc(C)c1C1C(=O)CC(CC(=O)NC(C)(C)C)C1=O (stereo not shown) [Compound B87] |  |  |  |  |  |  |  |  | 30 | 10 | 70 | 40 | 80 | 70 | 80 | 20 | 
Cc1cc(-c2ncc(F)cc2F)cc(C)c1C1C(=O)CC(CC(=O)N(C)C)C1=O (stereo not shown) [Compound B265] | 100 | 100 | 100 | 100 | 100 | 100 | 100 | 100 |  |  |  |  |  |  |  |  | 
CCc1cccc(C)c1C1C(=O)CC(CC(=O)NC(C)(C)C)C1=O (stereo not shown) [Compound B149] |  |  |  |  |  |  |  |  | 90 | 80 | 90 | 90 | 80 | 90 | 90 | 100 | 
Cc1cc(-c2ccc(Br)cn2)cc(C)c1C1C(=O)CC(CC(=O)N2CCOCC2)C1=O (stereo not shown) [Compound B299] | 90 | 90 | 90 | 90 | 100 | 100 | 100 | 100 |  |  |  |  |  |  |  |  | 
